Test results: EPA's ToxValDB 9.5 (doi:10.2903/j.efsa.2009.298r)
Values after ≈ are worked out from the molar mass of the structure shown.

Legend:
Tagia sp. = details: mortality
Apis mellifera = details: acute, mortality
Allium cepa = details: not reported; seedling emergence
Canidae = details: oral, Dog Other, organ weight
Daphnia magna = details: chronic/long-term; duration: 21 days; reproduction
Folsomia candida = details: chronic/long-term

CCCCC(C#N)(Cn1cncn1)c1ccc(Cl)cc1 (configuration not stated) [Myclobutanil]
LC50 (Tagia sp.; acute): 250 mg/kg | NOEC (Tagia sp.; chronic/long-term, duration: 28 days): 10.3 mg/kg | LD50 (Apis mellifera; duration: 72 hours, dermal): > 39.6 µg/piece | LD50 (Apis mellifera; oral, unspecified): > 33.9 µg/piece | NOEC (Anas platyrhynchos; reproductive): 31.6 mg/kg-day | LC50 (Anas platyrhynchos; short-term, oral, feed, mortality): > 1540 mg/kg-day | LEL (Allium cepa): > 300 g/ha | LC50 (Colinus virginianus; acute, oral, diet, mortality): > 567 mg/kg-day | LD50 (Colinus virginianus; acute, oral, mortality): 510 mg/kg-day | NOEC (Colinus virginianus; reproduction developmental): 24.2 mg/kg-day | NOAEL (Canidae; chronic, duration: 1 years): 3.09 mg/kg-day | NOAEL (Canidae; subchronic, duration: 90 days): 3.09 mg/kg-day | LC50 (Oncorhynchus mykiss; acute, duration: 96 hours, mortality): 2 µg/mL (≈ 6.93 µM) | NOEC (Oncorhynchus mykiss; chronic/long-term, duration: 21 days, growth): 0.2 mg/L | LD50 (Rattus norvegicus; acute, oral, M, mortality): 1600 mg/kg-day | NOAEL (Rattus norvegicus; chronic, duration: 2 years, histopathology: nonneoplastic): 2.5 mg/kg-day | NOAEL (Rattus norvegicus; developmental, development): 31 mg/kg-day | NOEL (Rattus norvegicus; reproduction developmental, reproduction): 16 mg/kg-day | LEL (Typhlodromus pyri; acute, duration: 14 days, mortality): 36 g/ha | LEL (Typhlodromus pyri; not reported, reproduction): 36 g/ha | NOEC (Daphnia magna): 1 mg/L | NOEC (Folsomia candida): 20.5 mg/kg
